Measurements: US7238716B2, “Alkanoic acid derivatives process for their production and use thereof” (Takeda Pharmaceuticals Company Limited, priority 2000, dated 2007)

How the values were obtained:
KKA^y mice = test: Total cholesterol lowering action and plasma anti-arteriosclerosis index enhancing action in mice (Test Example 2); assay type: in vivo; conditions: Mus musculus, po, 96 h, four days; for change in vivo at 0.005 % / change in vivo at 0.01 %: percent increase of [(HDL cholesterol/total cholesterol)×100] vs non-administration group; for change in vivo at 0.005 % / inhibition in vivo at 0.005 %: 0.005% in powdery diet; for inhibition in vivo at 0.005 % / inhibition in vivo at 0.01 %: percent reduction of plasma total cholesterol level vs non-administration group; for change in vivo at 0.01 % / inhibition in vivo at 0.01 %: 0.01% in powdery diet
Source text: Test compounds were mixed in a powdery diet (CE-2, Japan Clea) the concentration of 0.01% (compounds of Examples 7, 26, 29 and 32) or 0.005% (compounds of Examples 1, 11, 15, 18, 24, 36, 37, 41, 48, 50, 51, 52, 58, 62, 79, 88, 91, 92, 93, 97, 107, 110, 129 and 130), and freely given to KKA^y mice (11 to 12 weeks old, 5 mice per group), a model of type-2 diabetes mellitus, for four days. During this period, water was given freely. Blood was sampled from orbital venous plexus and components were analyzed using the plasma separated from the blood. Total cholesterol levels were determined by using L type Wako Cholesterol (Wako Pure Chemical Industries, Ltd). Precipitation reagent for HDL cholesterol (Wako Pure Chemical Industries, Ltd.) was added to a part of the plasma to precipitate non-HDL lipoprotein, and cholesterol (HDL cholesterol) in the resulting supernatant was determined. The plasma anti-arteriosclerosis index [(HDL cholesterol/total cholesterol)×100] was calculated by using these cholesterol levels.
In the Table, “Total cholesterol lowering action (%)” represents the percent reduction (%) of total cholesterol level in the test compound administration group, when the total cholesterol level in the test compound non-administration group is taken as 100%. “Plasma anti-arteriosclerosis index-enhancing action (%)” represents the percent increase (%) of plasma anti-arteriosclerosis index in the test compound administration group, when the plasma anti-arteriosclerosis index in the test compound non-administration group is taken as 100%.

Row | melting point | SMILES | change in vivo at 0.005 % (KKA^y mice) [%] | inhibition in vivo at 0.005 % (KKA^y mice) [%] | change in vivo at 0.01 % (KKA^y mice) [%] | inhibition in vivo at 0.01 % (KKA^y mice) [%]
1 | 115 to 116 °C (dec.) | Cc1oc(-c2ccccc2)nc1COc1ccc(COc2cccnc2CC(=O)O)cc1 [Example 37, 2-[3-[4-[(5-methyl-2-phenyl-4-oxazolyl)methoxy]benzyloxy]-2-pyridyl]acetic acid] | 19 | 15 |  | 
2 | 134 to 136 °C | COc1ccc(OCc2ccc(OCc3nc(-c4ccccc4)oc3C)cc2)c(CC(=O)O)c1 [Example 24, 2-[5-methoxy-2-[4-[(5-methyl-2-phenyl-4-oxazolyl)methoxy]benzyloxy]phenyl]acetic acid] | 17 | 10 |  | 
3 | 160 to 161 °C | Cc1oc(-c2ccccc2)nc1COc1ccc(COc2ccc(Cl)cc2CC(=O)O)cc1 [Example 18, 2-[5-chloro-2-[4-[(5-methyl-2-phenyl-4-oxazolyl)methoxy]benzyloxy]phenyl]acetic acid] | 12 | 23 |  | 
4 | 152 to 153 °C | Cc1oc(-c2ccccc2)nc1COc1cc(COc2ccccc2CC(=O)O)on1 [Example 79, 2-[2-[3-(5-methyl-2-phenyl-4-oxazolylmethoxy)-5-isoxazoly]methoxylphenyl]acetic acid] | 42 | 39 |  | 
5 | 167 to 168 °C | Cc1oc(-c2ccco2)nc1COc1ccc(COc2ccccc2CC(=O)O)cc1 [Example 50, 2-[2-[4-[[2-(2-furyl)-5-methyl-4-oxazolyl]methoxy]benzyloxy]phenyl]acetic acid] | 15 | 20 |  | 
6 | 151 to 152 °C | Cc1oc(-c2ccco2)nc1COc1ccc(COc2ncccc2CC(=O)O)cc1 [Example 92, 2-[2-[4-[[2-(2-furyl)-5-methyl-4-oxazolyl]methoxy]benzyloxy]-3-pyridyl]acetic acid] | 23 | 15 |  | 
7 | 147 to 148 °C | Cc1oc(-c2ccccc2)nc1COc1ccc(COc2ncccc2CC(=O)O)cn1 [Example 88, 2-[2-[[6-[(5-methyl-2-phenyl-4-oxazolyl)methoxy]-3-pyridyl]methoxy]-3-pyridyl]acetic acid] | 22 | 10 |  | 
8 | 165 to 166 °C | COc1cc(COc2ccccc2CC(=O)O)ccc1OCc1nc(-c2ccccc2)oc1C [Example 48, 2-[2-[3-methoxy-4-[(2-phenyl-5-methyl-4-oxazolyl)methoxy]benzyloxy]phenyl]acetic acid] | 20 | 17 |  | 
9 | 115 to 116 °C | O=C(O)Cc1ccccc1OCc1ccc(OCc2csc(-c3ccccc3)n2)cc1 [Example 51, 2-[2-[4-[(2-phenyl-4-thiazolyl)methoxy]benzyloxy]phenyl]acetic acid] | 22 | 24 |  | 
10 | 101 to 102 °C | Cc1oc(-c2ccccc2)nc1COc1cccc(COc2cccc(CC(=O)O)c2)c1 [Example 32, 2-[[3-[3-(5-methyl-2-phenyl-4-oxazolyl)methoxy]benzyloxy]phenyl]acetic acid] |  |  | 10 | 2
11 | 130 to 131 °C | Cc1oc(-c2ccccc2)nc1CCc1ccc(COc2ccccc2CC(=O)O)cc1 [Example 97, 2-[2-[4-[2-(5-methyl-2-phenyl-4-oxazolyl)ethyl]benzyloxy]phenyl]acetic acid] | 27 | 27 |  | 
12 | 115 to 116 °C | Cc1ccc(OCc2ccc(OCc3nc(-c4ccccc4)oc3C)cc2)c(CC(=O)O)c1 [Example 15, 2-[5-methyl-2-[4-[(5-methyl-2-phenyl-4-oxazolyl)methoxy]benzyloxy]phenyl]acetic acid] | 4 | 25 |  | 
13 | 159 to 160 °C | Cc1oc(-c2ccccc2)nc1COc1ccc(COc2cccc(CC(=O)O)c2)cc1 [Example 1, 2-[3-[4-[(5-methyl-2-phenyl-4-oxazolyl)methoxy]benzyloxy]phenyl]acetic acid] | 11 | 7 |  | 
14 | 145 to 146 °C | COc1cc(COc2ncccc2CC(=O)O)ccc1OCc1nc(-c2ccccc2)oc1C [Example 91, 2-[2-[3-methoxy-4-[(2-phenyl-5-methyl-4-oxazolyl)methoxy]benzyloxy]-3-pyridyl]acetic acid] | 16 | 6 |  | 
15 | 128 to 129 °C | Cc1sc(-c2ccccc2)nc1COc1ccc(COc2ncccc2CC(=O)O)cc1 [Example 93, 2-[2-[4-[(5-methyl-2-phenyl-4-thiazolyl)methoxy]benzyloxy]-3-pyridyl]acetic acid] | 17 | 16 |  | 
16 | 122 to 123 °C | Cc1sc(-c2ccccc2)nc1COc1ccc(COc2ccccc2CC(=O)O)cc1 [Example 52, 2-[2-[4-[(5-methyl-2-phenyl-4-thiazolyl)methoxy]benzyloxy]phenyl]acetic acid] | 15 | 26 |  | 
17 | 129 to 130 °C | Cc1oc(-c2ccccc2)nc1COc1cc(COc2ncccc2CC(=O)O)on1 [Example 129, 2-[2-[[3-[(5-methyl-2-phenyl-4-oxazolyl)methoxy]-5-isoxazolyl]methoxy]-3-pyridyl]acetic acid] | 25 | 14 |  | 
18 | 141 to 142 °C | Cc1oc(-c2ccccc2)nc1CCOc1ccc(COc2ccccc2CC(=O)O)cc1 [Example 58, 2-[2-[4-[2-(5-methyl-2-phenyl-4-oxazolyl)ethoxy]benzyloxy]phenyl]acetic acid] | 21 | 20 |  | 
19 | 120 to 121 °C | Cc1oc(-c2ccccc2)nc1CCc1noc(COc2ccccc2CC(=O)O)n1 [Example 107, 2-[2-[[3-[2-(5-methyl-2-phenyl-4-oxazolyl)ethyl]-1,2,4-oxadiazol-5-yl]methoxy]phenyl]acetic acid] | 9 | 13 |  | 
20 | 155 to 156 °C | Cc1oc(-c2ccc3ccccc3c2)nc1COc1ccc(COc2ncccc2CC(=O)O)cc1 [Example 130, 2-[2-[4-[5-methyl-2-(2-naphthyl)-4-oxazolylmethoxy]benzyloxy]-3-pyridyl]acetic acid] | 15 | 16 |  | 
21 | 115 to 116 °C | CCOc1ccc(OCc2ccc(OCc3nc(-c4ccccc4)oc3C)cc2)c(CCC(=O)O)c1 [Example 29, 3-[5-ethoxy-2-[4-[(5-methyl-2-phenyl-4-oxazolyl)methoxy]benzyloxy]phenyl]propionic acid] |  |  | 20 | 21
22 | 129 to 130 °C | CCOc1ccc(OCc2ccc(OCc3nc(-c4ccccc4)oc3C)cc2)cc1CCC(=O)O [Example 7, 3-[2-ethoxy-5-[4-[(5-methyl-2-phenyl-4-oxazolyl)methoxy]benzyloxy]phenyl]propionic acid] |  |  | 15 | 17
23 | 153 to 154 °C | Cc1oc(-c2ccccc2)nc1COc1ccc(COc2ccccc2CC(=O)O)cc1 [Example 11, 2-[2-[4-[(5-methyl-2-phenyl-4-oxazolyl)methoxy]benzyloxy]phenyl]acetic acid] | 18 | 23 |  | 
24 | 122 to 123 °C | CCOc1ccc(OCc2ccc(OCc3nc(-c4ccccc4)oc3C)cc2)c(CC(=O)O)c1 [Example 26, 2-[5-ethoxy-2-[4-[(5-methyl-2-phenyl-4-oxazolyl)methoxy]benzyloxy]phenyl]acetic acid] |  |  | 16 | 20
25 | 148 to 149 °C | Cc1oc(-c2ccccc2)nc1COc1cc(COc2cccc(CC(=O)O)c2)ccn1 [Example 62, 2-[3-[2-[(5-methyl-2-phenyl-4-oxazolyl)methoxy]-4-pyridylmethoxy]phenyl]acetic acid] | 15 | 9 |  | 
26 | 144 to 145 °C | Cc1oc(-c2ccccc2)nc1COc1ccc(COc2ncccc2CC(=O)O)cc1 [Example 36, 2-[2-[4-[(5-methyl-2-phenyl-4-oxazolyl)methoxy]benzyloxy]-3-pyridyl]acetic acid] | 34 | 19 |  | 
27 | 138 to 139 °C | Cc1ccc(CC(=O)O)c(OCc2ccc(OCc3nc(-c4ccccc4)oc3C)cc2)n1 [Example 110, 2-[6-methyl-2-[4-[(5-methyl-2-phenyl-4-oxazolyl)methoxy]benzyloxy]-3-pyridyl]acetic acid] | 24 | 21 |  | 
